According to ChEMBL document CHEMBL3734743, “Potent complement C3a receptor agonists derived from oxazole amino acids: Structure-activity relationships” (Bioorg Med Chem Lett, 2015):
Calls of active or inactive are those of the source. The rule behind the calls is not given here.

How the values were obtained:
[1] = target: T1, C3a anaphylatoxin chemotactic receptor (Homo sapiens, UniProt Q16581); experiment: Displacement of [125I]-C3a from C3aR in human MDM cells after 60 mins by microbeta scintillation counting analysis; type: cell-based
T1 sequence (Q16581 whole entry): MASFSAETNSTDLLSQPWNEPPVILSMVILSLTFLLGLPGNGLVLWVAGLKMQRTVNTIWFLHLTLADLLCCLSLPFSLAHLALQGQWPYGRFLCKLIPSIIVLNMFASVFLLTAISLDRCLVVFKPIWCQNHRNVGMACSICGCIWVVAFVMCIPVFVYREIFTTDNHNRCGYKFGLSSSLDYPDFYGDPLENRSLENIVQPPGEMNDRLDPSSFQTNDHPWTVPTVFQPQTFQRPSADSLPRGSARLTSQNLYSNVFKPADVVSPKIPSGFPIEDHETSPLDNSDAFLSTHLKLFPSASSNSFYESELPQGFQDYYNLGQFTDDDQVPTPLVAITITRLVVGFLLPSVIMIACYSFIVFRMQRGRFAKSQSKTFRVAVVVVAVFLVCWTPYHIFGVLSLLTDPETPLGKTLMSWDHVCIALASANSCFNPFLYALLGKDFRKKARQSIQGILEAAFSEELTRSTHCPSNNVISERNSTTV

[2] = target: T2, C5a anaphylatoxin chemotactic receptor 1 (Homo sapiens) (UniProt P21730); experiment: Displacement of [125I]-C5a from C5aR in human MDM cells at 20 uM after 60 mins by microbeta scintillation counting analysis; type: cell-based
T2 sequence (whole entry): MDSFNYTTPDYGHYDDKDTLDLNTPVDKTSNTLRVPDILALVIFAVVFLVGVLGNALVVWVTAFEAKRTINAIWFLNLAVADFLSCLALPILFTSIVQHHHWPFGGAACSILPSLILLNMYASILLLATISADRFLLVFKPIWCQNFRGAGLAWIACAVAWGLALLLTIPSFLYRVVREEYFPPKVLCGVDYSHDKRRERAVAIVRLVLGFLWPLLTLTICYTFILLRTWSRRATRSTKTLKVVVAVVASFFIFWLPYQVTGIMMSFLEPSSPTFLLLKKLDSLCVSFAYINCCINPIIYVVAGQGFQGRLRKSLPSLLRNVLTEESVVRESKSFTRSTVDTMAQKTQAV

[3] = target: T3, C3a anaphylatoxin chemotactic receptor (Homo sapiens) (UniProt Q16581); experiment: Displacement of [125I]-C3a from C3aR in human MDM cells at 20 uM after 60 mins by microbeta scintillation counting analysis; type: cell-based
T3 sequence (whole entry): T1 sequence (Q16581 whole entry)

[4] = target: T3, C3a anaphylatoxin chemotactic receptor (Homo sapiens); experiment: Agonist activity at C3aR in human MDM cells assessed as inhibition of C3a-induced Ca2+ response at 10 uM measured for 60 secs by fluorescence assay relative to 100 nM C3a; type: functional, cell-based
[5] = target: T3, C3a anaphylatoxin chemotactic receptor (Homo sapiens); experiment: Agonist activity at C3aR in human MDM cells assessed as intracellular calcium efflux at 1 uM measured for 60 secs by fluorescence based receptor desensitization assay; type: functional, cell-based

Structure (SMILES): CC(C)Cc1ccc(C(C)C(=O)N[C@@H](CC(C)C)c2nc(C(=O)N[C@@H](CCCNC(=N)N)C(=O)O)co2)cc1 (some centres undefined)
- IC50 [1]: 1030 nM
- inhibition [2]: inactive

Structure (SMILES): Cc1ccc(NC(=O)N[C@@H](CC(C)C)c2nc(C(=O)N[C@@H](CCCNC(=N)N)C(=O)O)c(C)o2)cc1
- inhibition [3]: inactive
- inhibition [4]: 64%

Structure (SMILES): CC(C)C[C@H](NC(=O)C1c2ccccc2-c2ccccc21)c1nc(C(=O)N[C@@H](CCCNC(=N)N)C(=O)O)co1
- IC50 [1]: 142 nM
- inhibition [2]: inactive

Structure (SMILES): COc1ccc(CC(=O)N[C@@H](CC(C)C)c2nc(C(=O)N[C@@H](CCCNC(=N)N)C(=O)O)c(C)o2)cc1
- inhibition [3]: 40%
- inhibition [2]: inactive
- inhibition [4]: 26%

Structure (SMILES): Cc1oc([C@H](CC(C)C)NC(=O)c2cc3ccccc3[nH]2)nc1C(=O)N[C@@H](CCCNC(=N)N)C(=O)O
- inhibition [3]: 26%
- inhibition [2]: inactive
- inhibition [4]: 56%

Structure (SMILES): CC[C@H](C)[C@H](NC(=O)c1cncc(Br)c1)c1nc(C(=O)N[C@@H](CCCNC(=N)N)C(=O)O)co1
- IC50 [1]: 5 nM
- inhibition [2]: inactive
- Activity [5]: inactive

Structure (SMILES): CC[C@H](C)[C@H](NC(=O)Cc1c[nH]c2ccccc12)c1nc(C(=O)N[C@@H](CCCNC(=N)N)C(=O)O)co1
- IC50 [1]: 152 nM
- inhibition [2]: inactive

Structure (SMILES): Cc1oc([C@H](CC(C)C)NC(=O)c2ccc(/N=N/c3ccccc3)cc2)nc1C(=O)N[C@@H](CCCNC(=N)N)C(=O)O
- inhibition [3]: 49%
- inhibition [2]: inactive
- inhibition [4]: 48%

Structure (SMILES): Cc1oc([C@H](CC(C)C)NC(=O)c2ccccn2)nc1C(=O)N[C@@H](CCCNC(=N)N)C(=O)O
- inhibition [3]: 31%
- inhibition [2]: inactive
- inhibition [4]: 77%

Structure (SMILES): COc1ccc(CC(=O)N[C@@H](CC(C)C)c2nc(C(=O)N[C@@H](CCCNC(=N)N)C(=O)O)c(C)o2)cc1OC
- inhibition [3]: 65%
- inhibition [2]: inactive
- inhibition [4]: 67%

Structure (SMILES): Cc1oc([C@H](CC(C)C)NC(=O)c2ccncc2)nc1C(=O)N[C@@H](CCCNC(=N)N)C(=O)O
- inhibition [3]: inactive
- inhibition [2]: inactive
- inhibition [4]: 109%

Structure (SMILES): Cc1oc([C@H](CC(C)C)NC(=O)S(=O)(=O)c2ccccc2)nc1C(=O)N[C@@H](CCCNC(=N)N)C(=O)O
- inhibition [3]: 44%
- inhibition [2]: inactive
- inhibition [4]: 103%

Structure (SMILES): CC(C)C[C@H](NC(=O)C(C)c1ccc(N2Cc3ccccc3C2=O)cc1)c1nc(C(=O)N[C@@H](CCCNC(=N)N)C(=O)O)co1 (some centres undefined)
- IC50 [1]: 450 nM
- inhibition [2]: inactive

Structure (SMILES): COc1cccc(C(=O)N[C@@H](CC(C)C)c2nc(C(=O)N[C@@H](CCCNC(=N)N)C(=O)O)c(C)o2)c1
- inhibition [3]: inactive
- inhibition [2]: inactive
- inhibition [4]: 134%

Structure (SMILES): CC[C@H](C)[C@H](NC(=O)C(C)c1ccc2cc(OC)ccc2c1)c1nc(C(=O)N[C@@H](CCCNC(=N)N)C(=O)O)co1 (some centres undefined)
- inhibition [2]: inactive

Structure (SMILES): Cc1oc([C@H](CC(C)C)NC(=O)CCC(C)C)nc1C(=O)N[C@@H](CCCNC(=N)N)C(=O)O
- inhibition [3]: inactive
- inhibition [2]: inactive
- inhibition [4]: 95%

Structure (SMILES): Cc1oc([C@H](CC(C)C)NC(=O)CC(C)(C)C)nc1C(=O)N[C@@H](CCCNC(=N)N)C(=O)O
- inhibition [3]: 44%
- inhibition [2]: inactive
- inhibition [4]: 70%

Structure (SMILES): Cc1oc([C@H](CC(C)C)NC(=O)c2cccnc2)nc1C(=O)N[C@@H](CCCNC(=N)N)C(=O)O
- inhibition [3]: 29%
- inhibition [2]: inactive
- inhibition [4]: 68%

Structure (SMILES): CC[C@H](C)[C@H](NC(=O)OC(C)(C)C)c1nc(C(=O)N[C@@H](CCCNC(=N)N)C(=O)O)co1
- inhibition [2]: inactive
- Activity [5]: inactive

Structure (SMILES): COc1ccccc1CC(=O)N[C@@H](CC(C)C)c1nc(C(=O)N[C@@H](CCCNC(=N)N)C(=O)O)c(C)o1
- inhibition [3]: 43%
- inhibition [2]: inactive
- inhibition [4]: 81%

Structure (SMILES): Cc1oc([C@H](CC(C)C)NC(=O)c2ccc(C(F)(F)F)cc2)nc1C(=O)N[C@@H](CCCNC(=N)N)C(=O)O
- inhibition [3]: 61%
- inhibition [2]: inactive
- inhibition [4]: 50%

Structure (SMILES): CC[C@H](C)[C@H](NC(=O)C1CCCc2ccccc21)c1nc(C(=O)N[C@@H](CCCNC(=N)N)C(=O)O)co1 (some centres undefined)
- IC50 [1]: 104 nM
- inhibition [2]: inactive

Structure (SMILES): CC[C@H](C)[C@H](NC(=O)c1cccc(OC)c1OC)c1nc(C(=O)N[C@@H](CCCNC(=N)N)C(=O)O)co1
- IC50 [1]: 710 nM
- inhibition [2]: inactive

Structure (SMILES): Cc1oc([C@H](CC(C)C)NC(=O)c2ccc(Oc3ccccc3)cc2)nc1C(=O)N[C@@H](CCCNC(=N)N)C(=O)O
- inhibition [3]: 32%
- inhibition [2]: inactive
- inhibition [4]: 68%

Structure (SMILES): COc1ccc(OC)c(CC(=O)N[C@@H](CC(C)C)c2nc(C(=O)N[C@@H](CCCNC(=N)N)C(=O)O)c(C)o2)c1
- inhibition [3]: 42%
- inhibition [2]: inactive
- inhibition [4]: 69%

Structure (SMILES): CC[C@H](C)[C@H](NC(=O)c1ccc(C(=O)c2ccccc2)cc1)c1nc(C(=O)N[C@@H](CCCNC(=N)N)C(=O)O)co1
- IC50 [1]: 157 nM
- inhibition [2]: inactive

Structure (SMILES): CC[C@H](C)[C@H](NC(=O)c1ccc(OC)cc1OC)c1nc(C(=O)N[C@@H](CCCNC(=N)N)C(=O)O)co1
- IC50 [1]: 870 nM
- inhibition [2]: inactive

Structure (SMILES): Cc1oc([C@H](CC(C)C)NC(=O)c2cncc(Br)c2)nc1C(=O)N[C@@H](CCCNC(=N)N)C(=O)O
- inhibition [3]: inactive
- inhibition [2]: inactive
- inhibition [4]: 105%

Structure (SMILES): CC[C@H](C)[C@H](NC(=O)C(c1ccccc1)c1ccccc1)c1nc(C(=O)N[C@@H](CCCNC(=N)N)C(=O)O)co1
- IC50 [1]: 137 nM
- inhibition [2]: inactive

Structure (SMILES): CC[C@H](C)[C@H](NC(=O)c1ccc(N(C)C)cc1)c1nc(C(=O)N[C@@H](CCCNC(=N)N)C(=O)O)co1
- IC50 [1]: 800 nM
- inhibition [2]: inactive

Structure (SMILES): COc1cccc(CC(=O)N[C@@H](CC(C)C)c2nc(C(=O)N[C@@H](CCCNC(=N)N)C(=O)O)c(C)o2)c1
- inhibition [3]: 41%
- inhibition [2]: inactive
- inhibition [4]: 87%

Structure (SMILES): Cc1oc([C@H](CC(C)C)NC(=O)c2cc3ccccc3s2)nc1C(=O)N[C@@H](CCCNC(=N)N)C(=O)O
- inhibition [3]: 14%
- inhibition [2]: inactive
- inhibition [4]: 62%

Structure (SMILES): COc1ccc(CCC(=O)N[C@@H](CC(C)C)c2nc(C(=O)N[C@@H](CCCNC(=N)N)C(=O)O)c(C)o2)cc1
- inhibition [3]: 44%
- inhibition [2]: inactive
- inhibition [4]: 44%

Structure (SMILES): Cc1oc([C@H](CC(C)C)NC(=O)NCc2ccccc2)nc1C(=O)N[C@@H](CCCNC(=N)N)C(=O)O
- inhibition [3]: 61%
- inhibition [2]: inactive
- inhibition [4]: 50%

Structure (SMILES): Cc1oc([C@H](CC(C)C)NC(=O)C2CCCCC2)nc1C(=O)N[C@@H](CCCNC(=N)N)C(=O)O
- inhibition [3]: 39%
- inhibition [2]: inactive
- inhibition [4]: 107%

Structure (SMILES): Cc1oc([C@H](CC(C)C)NC(=O)CC2CCCCC2)nc1C(=O)N[C@@H](CCCNC(=N)N)C(=O)O
- inhibition [3]: 26%
- inhibition [2]: inactive
- inhibition [4]: 69%

Structure (SMILES): Cc1oc([C@H](CC(C)C)NC(=O)c2cc3ccccc3o2)nc1C(=O)N[C@@H](CCCNC(=N)N)C(=O)O
- inhibition [3]: 19%
- inhibition [2]: inactive
- inhibition [4]: 84%

Structure (SMILES): CC[C@H](C)[C@H](NC(=O)c1ccccc1)c1nc(C(=O)N[C@@H](CCCNC(=N)N)C(=O)O)co1
- IC50 [1]: 27 nM
- inhibition [2]: inactive
